According to publication PMC1253752, “Binding of Estrogenic Compounds to Recombinant Estrogen Receptor-α: Application to Environmental Analysis” (Environmental Health Perspectives, 2004):
Read-outs that look alike come from different tables or passages of the source.

Key:
ER-α [1] = target: T1, ER-α (Homo sapiens, UniProt P03372); assay: MELN cell luciferase assay (estrogen-responsive reporter in MCF-7 cells); assay type: cell-based
T1 construct: we transfected ER-α–positive breast cancer MCF-7 cells; endogenous in cells; host or cells: MELN (MCF-7 stably transfected with ERE-βGlob-Luc-SVNeo)
T1 sequence (P03372 1-595): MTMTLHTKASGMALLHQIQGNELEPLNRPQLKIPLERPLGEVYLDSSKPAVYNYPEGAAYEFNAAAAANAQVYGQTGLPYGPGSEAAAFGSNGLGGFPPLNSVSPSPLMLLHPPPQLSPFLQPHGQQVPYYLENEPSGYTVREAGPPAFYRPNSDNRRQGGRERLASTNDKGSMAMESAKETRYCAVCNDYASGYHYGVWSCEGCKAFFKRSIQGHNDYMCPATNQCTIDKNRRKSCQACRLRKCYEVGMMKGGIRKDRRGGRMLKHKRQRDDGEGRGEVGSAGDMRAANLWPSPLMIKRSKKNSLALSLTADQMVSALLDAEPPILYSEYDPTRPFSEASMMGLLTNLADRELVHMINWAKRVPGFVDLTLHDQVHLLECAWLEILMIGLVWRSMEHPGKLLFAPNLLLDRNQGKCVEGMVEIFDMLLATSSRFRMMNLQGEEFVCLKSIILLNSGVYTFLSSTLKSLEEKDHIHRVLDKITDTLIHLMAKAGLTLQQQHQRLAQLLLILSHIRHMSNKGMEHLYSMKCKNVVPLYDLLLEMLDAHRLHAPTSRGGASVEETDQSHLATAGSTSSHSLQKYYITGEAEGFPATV
Experimental: Selection of resistant clones by geneticin was performed at 1 mg/mL.
(§1) For strain cultures, cells were grown in phenol red containing Dulbecco’s modified Eagle medium, 1 g/L glucose, supplemented with 5% fetal calf serum (FCS), and 1% antibiotic (penicillin/streptomycin) in a 5% CO2 humidified atmosphere at 37°C.
Cells were seeded at a density of 5 × 10^4 cells/well in 96-well white opaque tissue culture plates (Becton Dickinson, Le Pont de Claix, France) in 150 μL test culture medium. Compounds to be tested were prepared 4× concentrated in the same medium and 50 μL was added per well 8 hr after seeding. Cells were incubated with compounds for 16 hr. Experiments were performed in quadruplicate and repeated twice. At the end of incubation, effector containing medium was removed and replaced by […], luciferin diffuses into the cell and produces a luminescent signal that is stable from 5 min on. […] The 96-well plate was then introduced in a microplate luminometer (Centro LB 960, Berthold Technologies), and intact living cell luminescence measured for 2 sec. Results are expressed as a percentage of maximum luciferase activity. […] GraphPad Software Inc., San Diego, CA, USA). […]

[2] = target: T2, recombinant ER-α (hER-αLBD triple mutant) (Homo sapiens, UniProt P03372, C381S/C417S/C530S); assay: biochemical
T2 sequence (P03372 302-552 C381S/C417S/C530S): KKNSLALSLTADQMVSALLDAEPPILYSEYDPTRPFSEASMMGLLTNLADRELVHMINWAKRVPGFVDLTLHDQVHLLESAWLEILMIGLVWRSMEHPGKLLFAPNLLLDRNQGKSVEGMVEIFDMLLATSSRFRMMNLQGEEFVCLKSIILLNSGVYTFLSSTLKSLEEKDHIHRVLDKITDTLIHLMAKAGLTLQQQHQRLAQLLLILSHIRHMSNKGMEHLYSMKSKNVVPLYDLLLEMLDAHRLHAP

[3] = target: T2, recombinant ER-α (hER-αLBD triple mutant); settings: for RBA: ratio of IC50 values of E2 to competitor, E2 set at 100
ER-α [4] = target: T1, ER-α; assay type: cell-based
Experimental: Ten nanomoles of recombinant ER-αwere immobilized on 500 μL Ni-NTA-agarose phase. […] After rolling for 16 hr, flow-through and three 500-μL washings with WB were collected. Liganded receptor was then eluted with 3 × 500 μL EB, and eluate was heated at 65°C for 30 min in order to denature recombinant ER-α. Collected fractions were diluted 10-fold in culture medium before their relative estrogenic activity was evaluated with MELN reporter cells.
Flow-through (1.5 mL), washing, and elution fractions (500 μL) were collected. Precolumn and flow-through fractions were diluted 10-fold in culture medium before their relative activities were evaluated with MELN and HAhLP reporter cells. Washing and elution fractions were diluted 30-fold in culture medium to take into account the fact that they were 3× concentrated.

AhR = target: T3, AhR (Homo sapiens, UniProt P35869); assay: HAhLP cell luciferase assay (CYP1A1-Luc reporter in HeLa cells); assay type: cell-based; settings: read-out: EC50 value, induction of luciferase expression
T3 construct: The dioxin reporter cell line was obtained by transfecting HeLa cells with CYP1A1-Luc and pSG5-puro plasmids; endogenous in cells; host or cells: HAhLP (HeLa stably transfected with CYP1A1-Luc and pSG5-puro)
T3 sequence (P35869 11-848): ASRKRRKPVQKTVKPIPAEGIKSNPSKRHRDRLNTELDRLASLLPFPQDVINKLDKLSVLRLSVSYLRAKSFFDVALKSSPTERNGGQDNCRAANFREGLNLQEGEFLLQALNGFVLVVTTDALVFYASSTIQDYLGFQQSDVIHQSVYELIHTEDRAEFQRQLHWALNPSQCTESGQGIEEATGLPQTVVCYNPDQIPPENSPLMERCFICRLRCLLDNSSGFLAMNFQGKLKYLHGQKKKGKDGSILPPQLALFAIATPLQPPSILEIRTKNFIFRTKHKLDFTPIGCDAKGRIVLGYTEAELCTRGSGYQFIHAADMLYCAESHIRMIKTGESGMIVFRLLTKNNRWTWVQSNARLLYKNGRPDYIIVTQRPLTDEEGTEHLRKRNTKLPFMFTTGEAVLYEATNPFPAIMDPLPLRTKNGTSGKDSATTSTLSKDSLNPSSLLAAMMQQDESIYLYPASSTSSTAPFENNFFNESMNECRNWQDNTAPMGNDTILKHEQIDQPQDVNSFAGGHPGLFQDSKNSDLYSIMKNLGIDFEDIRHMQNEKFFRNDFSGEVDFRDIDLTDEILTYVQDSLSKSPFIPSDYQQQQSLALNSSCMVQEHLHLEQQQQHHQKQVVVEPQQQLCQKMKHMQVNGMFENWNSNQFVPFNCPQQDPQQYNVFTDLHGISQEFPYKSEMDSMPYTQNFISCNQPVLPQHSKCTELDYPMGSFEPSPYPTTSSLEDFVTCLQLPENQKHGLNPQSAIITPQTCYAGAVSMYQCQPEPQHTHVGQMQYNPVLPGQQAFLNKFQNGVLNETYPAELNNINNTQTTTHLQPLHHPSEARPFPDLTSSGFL
Experimental: The dioxin reporter cell line was obtained by transfecting HeLa cells with CYP1A1-Luc and pSG5-puro plasmids. Selection of resistant clones by puromycin was performed at 0.5 μg/mL. The most dioxin-responsive clone was denominated HAhLP 1.15. […].
as §1
Cells were seeded at a density of 5 × 10^4 cells/well in 96-well white opaque tissue culture plates (Becton Dickinson, Le Pont de Claix, France) in 150 μL test culture medium. Compounds to be tested were prepared 4× concentrated in the same medium and 50 μL was added per well 8 hr after seeding. Cells were incubated with compounds for 16 hr. Experiments were performed in quadruplicate and repeated twice. […] The 96-well plate was then introduced in a microplate luminometer (Centro LB 960, Berthold Technologies), and intact living cell luminescence measured for 2 sec. Results are expressed as a percentage of maximum luciferase activity. […]
Sediment and water methanol extracts were applied to MELN and HAhLP cells at 0.3% (vol/vol) maximal concentration in test culture medium, and luciferase transactivation was measured.

recombinant ER-α = target: T4, recombinant ER-α (Homo sapiens, UniProt P03372, C381S/C417S/C530S); assay type: cell-based; settings: compound at concentration giving about 80% MELN transactivation, 1-100 nM recombinant ER-α
T4 construct: hER-αLBD(Lys302 → Pro552); made in house; host or cells: Escherichia coli BL21 DE3
T4 sequence (P03372 302-552 C381S/C417S/C530S): T2 sequence (P03372 302-552 C381S/C417S/C530S)
Experimental: MELN cells were seeded in 96-well white opaque tissue culture plates as described above. In separate tubes, estrogenic compounds at nonsaturating concentration mediating about 80% MELN cell activity or 0.1% methanol extract for environmental samples, were prepared 4×-concentrated and preincubated with the same volume of 4×-concentrated purified recombinant ER-α(1–100 nM final concentration) in test culture medium at 4°C for 16 hr. Medium from MELN cell culture plates was then removed and replaced by 100 μL of test culture medium supplemented with the same volume of preincubation medium. After 6 hr incubation at 37°C, luciferase activity was determined.

[5] = half-maximal induction in MELN cell line, 16 hr, read-out: EC50 ± SE
[6] = ratio of EC50 values of E2 to compound, E2 set at 100
[7] = compound applied at 3 nM, 10 nM E2 = 100
[8] = compound applied at 300 nM, 10 nM E2 = 100

CCCCCCCCCc1ccc(O)cc1 [4-NP, 4n-nonylphenol]
RTP (ER-α [1]): 0.00016 | EC50 (ER-α [1]; [5]): 11000 nM | IC50 [2]: 5600 nM | RBA [3]: 0.11

CC(C)(c1ccc(O)cc1)c1ccc(O)cc1 [BPA, bisphenol A]
Induction of luciferase activity, Elution (ER-α [4]): 70 ± 2% | Induction of luciferase activity, Flow-through (ER-α [4]): 17 ± 2% | Induction of luciferase activity, Precolumn (ER-α [4]): 70 ± 6% | Induction of luciferase activity, Washing (ER-α [4]): 16 ± 2%

Clc1cc2c(cc1Cl)Oc1cc(Cl)c(Cl)cc1O2 [dioxin]
activation of MELN cells (ER-α [1]; MELN cells): able to partially activate MELN cells | EC50 (AhR): 0.2 nM

C[C@H]1CCC[C@H](O)CCCCCc2cc(O)cc(O)c2C(=O)O1 [α -Zearalanol, α-zearalanol]
EC50 (ER-α [1]; [5]): 0.135 nM | RTP (ER-α [1]; [6]): 13.0 | Induction of luciferase activity, Elution (ER-α [4]; [7]): 82 ± 6% | Induction of luciferase activity, Flow-through (ER-α [4]; [7]): 17 ± 2% | Induction of luciferase activity, Precolumn (ER-α [4]; [7]): 88 ± 2% | Induction of luciferase activity, Washing (ER-α [4]; [7]): 16 ± 1%

ClC(Cl)=C(c1ccc(Cl)cc1)c1ccccc1Cl [2,4′-DDE]
EC50 (ER-α [1]; [5]): 2740 nM | RTP (ER-α [1]; [6]): 0.00063

C[C@H]1CCCC(=O)CCC/C=C/c2cc(O)cc(O)c2C(=O)O1 [Zearalenone, zearalenone]
EC50 (ER-α [1]): 0.313 nM | RTP (ER-α [1]; [6]): 5.62 | capture by recombinant ER-α / inhibition of transactivation (recombinant ER-α): captured less efficiently than was E2

ClC(Cl)=C(c1ccc(Cl)cc1)c1ccc(Cl)cc1 [4,4′-DDE]
EC50 (ER-α [1]; [5]): 25600 nM | RTP (ER-α [1]; [6]): 0.00007

O=S1(=O)OC(c2ccc(O)cc2)(c2ccc(O)cc2)c2ccccc21 [Phenol red, phenol red]
RTP (ER-α [1]): 0.00005 | EC50 (ER-α [1]; [5]): 36900 nM | Induction of luciferase activity, Elution (ER-α [4]): 40 ± 4% | Induction of luciferase activity, Flow-through (ER-α [4]): 16 ± 2% | Induction of luciferase activity, Precolumn (ER-α [4]): 36 ± 5% | Induction of luciferase activity, Washing (ER-α [4]): 15 ± 3%

nonylphenol mixture [NPm]
EC50 (ER-α [1]; [5]): 339 nM | RTP (ER-α [1]; [6]): 0.0051 | Induction of luciferase activity, Elution (ER-α [4]; [8]): 56 ± 2% | Induction of luciferase activity, Flow-through (ER-α [4]; [8]): 17 ± 1% | Induction of luciferase activity, Precolumn (ER-α [4]; [8]): 57 ± 4% | Induction of luciferase activity, Washing (ER-α [4]; [8]): 16 ± 2% | capture by recombinant ER-α / inhibition of transactivation (recombinant ER-α): only a slight or no inhibition | RBA [3]: 0.32 | IC50 ([3]; read-out: IC50 ± SE, 0.75 pmol recombinant ER-α, 2 nM [3H]-E2, 500 μL, 4°C 16 hr): 1860 nM
